This is an account of results in US20170022201A1, “MACROCYLIC PYRIDINE DERIVATIVES” (Janssen Pharmaceutica NV, priority 2014, published 2017).

One assay has as its target T1, eEF2K (Homo sapiens, UniProt O00418).
T1 construct: in the immortalized epithelial breast cell lines, MCF10A; host or cells: MCF10A immortalized breast epithelial cells
T1 sequence (O00418 1-725): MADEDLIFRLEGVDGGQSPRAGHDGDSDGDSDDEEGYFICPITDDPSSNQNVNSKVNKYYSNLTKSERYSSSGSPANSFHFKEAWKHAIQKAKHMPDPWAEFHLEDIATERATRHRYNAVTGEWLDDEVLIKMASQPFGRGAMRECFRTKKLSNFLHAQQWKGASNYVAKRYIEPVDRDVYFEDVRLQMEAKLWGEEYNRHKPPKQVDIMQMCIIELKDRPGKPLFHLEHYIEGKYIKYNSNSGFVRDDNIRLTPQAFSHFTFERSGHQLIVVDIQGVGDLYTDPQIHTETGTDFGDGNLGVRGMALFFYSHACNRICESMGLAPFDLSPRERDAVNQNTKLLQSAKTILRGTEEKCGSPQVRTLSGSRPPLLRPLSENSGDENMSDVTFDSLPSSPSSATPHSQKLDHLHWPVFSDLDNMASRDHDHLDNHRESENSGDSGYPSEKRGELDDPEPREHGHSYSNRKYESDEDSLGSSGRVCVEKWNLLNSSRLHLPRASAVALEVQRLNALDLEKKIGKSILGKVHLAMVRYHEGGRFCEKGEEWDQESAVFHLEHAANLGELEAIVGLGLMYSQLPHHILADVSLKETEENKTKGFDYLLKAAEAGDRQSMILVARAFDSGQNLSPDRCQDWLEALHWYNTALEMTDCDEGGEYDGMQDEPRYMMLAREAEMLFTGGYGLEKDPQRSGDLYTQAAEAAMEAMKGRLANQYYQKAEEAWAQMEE
The assay is described as follows: EF2K cell-based assay (P-EF2 AlphaLISA, 2-deoxyglucose stimulated MCF10A cells). The conditions noted are these: 2.5 mM 2-deoxyglucose 4 h, phosphorylation of EF2 at Thr 56, pIC50 = -log IC50 (M); for IC50: read-out: eEF2K_C_PThr56 pIC50 (converted). The procedure: In this assay, 2.5 mM 2-deoxyglucose was used to deplete intracellular ATP and activate 5′ adenosine monophosphate-activated protein kinase (AMPK) in the immortalized epithelial breast cell lines, MCF10A. MCF 10A cells were purchased from ATCC (CRL-10317).
MCF10A cells are seeded at a density of 1.25×10^5 Cells/ml at 100 μl/well in a 96-well plate and incubated for 24 hours (37° C., 5% CO2). Compound is added for 1 hour, and cell are stimulated with 2.5 mM of 2-deoxy-glucose for 4 hours. Medium is then removed, and cells are lysed in an ice-cold buffer M-PER (Thermo Scientific, 78501), containing protease and phosphatase inhibitors. P-EF2 levels are determined in these lysates using the P-EF2 AlphaLISA described above.

The next assay addresses PIK3C3 lipid kinase (Homo sapiens, UniProt Q8NEB9). The assay is described as follows: Biochemical Vps34 lipid kinase assay (ADP-Glo). Particulars: 20 μM ATP; for VPS34_1microM_%ofcntrl / remaining activity at 1 µM: single dose 1 μM, residual activity compared to control (DMSO); for IC50: serial dilution 10 μM to 0.3 nM, pIC50 = -log IC50 (M); for remaining activity at 1 µM: 1 h, read-out: VPS34_1microM_%ofcntrl. The method, then: A non-radiometric kinase assay (ADP-Glo™ Assay, Promega, Madison, Wi, USA) was used for measuring the kinase activity of the PIK3C3 lipid kinase. All kinase assays were performed in 96-well half-area microtiter plates in a 25 μl reaction volume. The reaction cocktail was pipetted in 3 steps in the following order: • 10 μl of ATP solution (in assay buffer, see below) • 5 μl of test sample in 5% DMSO 10 μl of enzyme/substrate mixture
All lipid kinase assays contained 50 mM HEPES (4-(2-hydroxyethyl)-1-piperazineethanesulfonic acid)—NaOH, pH 7.5, 1 mM EGTA ((ethylene glycol tetraacetic acid), 100 mM NaCl, 0.03% CHAPS (3-[(3-Cholamidopropyl) dimethylammonio]-1-propanesulfonate), 2 mM DTT (Dithiothreitol), 20 μM ATP (corresponding to the apparent ATP-Km), kinase (7.6 nM) and substrate (50 μM). The assay for PIK3C3 additionally contained 3 mM MnCl2.
The reaction cocktails were incubated at 30° C. for 60 minutes. The reaction was stopped with 25 μl ADP-Glo™ reagent per well. Plates were incubated for 40 minutes at room temperature, followed by addition of 50 μl kinase detection reagent per well and incubation for 60 minutes at room temperature. Signal was determined with a microplate luminescence reader (Victor, Perkin Elmer). The assay was either performed using a single dose of compound (1 μM final concentration in the assay reaction) with resulting data expressed as residual activity compared to control (DMSO), or using a serial (half-log) dilution of compounds starting at 10 μM and down to 0.3 nM (final concentrations in the assay) with data expressed as the pIC50.

In a further assay the target is T2, EF2K (Homo sapiens, UniProt O00418).
T2 construct: host or cells: LN-229 glioblastoma cell lysate
T2 sequence (O00418 1-725): T1 sequence (O00418 1-725)
The assay is described as follows: Biochemical EF2K lysate-based kinase assay (AlphaLISA p-eEF2 Thr56). The conditions noted are these: LN-229 cell lysates, 10 mM ATP, pH 6.6; pIC50 = -log IC50 (M); read-out: eEF2K_C_alphalisa pIC50 (converted). The source says:
LN-229 cells were purchased from ATCC (CRL-2611); these are glioblastoma cells. Cell lysates from LN229 were used in this kinase assay to provide both the kinase and the substrate (EF2). The AlphaLISA p-eEF2 (Thr56) detection assay was developed using a sandwich assay format with two specific antibodies recognizing different epitopes of the target, including one antibody against the phosphorylation site of interest. One anti-eEF2 antibody was conjugated onto AlphaLISA Acceptor beads, while the second antibody was biotinylated and captured by streptavidin coated Donor beads.
Compound was mixed with LN-229 cell lysates in the presence of a kinase buffer (e.g. HEPES) at a pH of 6.6, containing 10 mM Mg^2+ (e.g. magnesium acetate) and 10 mM adenosine-tri-phosphate (ATP) and incubated at room temperature for 15 minutes. The kinase reaction was stopped with excess ethylenediaminetetraacetic acid disodium salt and the biotinylated-anti phospho eEF2 antibody (3 nM) was added for 1 hour. Then the anti-EF2 acceptor beads (10 μg/ml) as well as the streptavidin coated donor beads (20 μg/ml) were added for 1 hour, and the AlphaLISA signal was measured in an Envision instrument once, left overnight, and measured again for the final read.

Some results are limits rather than exact numbers.

Chain of PIK3C3 lipid kinase (Q8NEB9 whole entry): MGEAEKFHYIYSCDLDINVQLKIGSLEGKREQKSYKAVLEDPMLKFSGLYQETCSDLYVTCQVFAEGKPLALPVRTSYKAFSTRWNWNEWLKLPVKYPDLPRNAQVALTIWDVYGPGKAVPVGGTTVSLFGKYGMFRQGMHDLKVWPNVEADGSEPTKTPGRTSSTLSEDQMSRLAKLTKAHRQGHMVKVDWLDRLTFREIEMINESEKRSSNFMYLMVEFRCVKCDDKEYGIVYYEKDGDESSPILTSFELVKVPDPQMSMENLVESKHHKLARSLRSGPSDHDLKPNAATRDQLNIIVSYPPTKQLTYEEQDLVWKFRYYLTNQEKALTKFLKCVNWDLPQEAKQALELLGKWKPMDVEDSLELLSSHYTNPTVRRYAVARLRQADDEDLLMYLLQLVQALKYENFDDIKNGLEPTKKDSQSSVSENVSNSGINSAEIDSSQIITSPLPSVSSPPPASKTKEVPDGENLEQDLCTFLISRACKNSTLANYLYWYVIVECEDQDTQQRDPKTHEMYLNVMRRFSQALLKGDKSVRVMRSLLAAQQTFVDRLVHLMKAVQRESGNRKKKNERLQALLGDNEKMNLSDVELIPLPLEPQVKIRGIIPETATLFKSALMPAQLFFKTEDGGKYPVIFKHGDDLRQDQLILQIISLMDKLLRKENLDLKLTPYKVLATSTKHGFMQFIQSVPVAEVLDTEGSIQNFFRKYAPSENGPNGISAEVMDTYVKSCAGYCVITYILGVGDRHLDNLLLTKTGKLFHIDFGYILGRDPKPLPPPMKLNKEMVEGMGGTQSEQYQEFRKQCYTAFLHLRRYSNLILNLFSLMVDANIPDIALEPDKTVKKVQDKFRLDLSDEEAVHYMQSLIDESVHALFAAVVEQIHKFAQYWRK

Regarding `O=C1CN2CCN(CC2)Cc2cccc(c2)Nc2cc(ccn2)-c2cnc(nc2)NC(C(=O)O)CCN1` (centres unmarked) [Compound 119], the “eEF2K_C_PThr56 pIC50” value at eEF2K is given as under 4.52. On PIK3C3 lipid kinase, this compound had a VPS34_1microM_%ofcntrl of 58.90%. Moreover, the IC50 at EF2K is 2.75e-07 M.
Consider `CC1(C)CN2CCN1Cc1cccc(c1)Nc1cc(ccn1)-c1cnc(nc1)NCCCNC(=O)C2` [Compound 19], for which the IC50 at eEF2K was 7.08e-07 M; against PIK3C3 lipid kinase it was 2.88e-07 M; on EF2K it was 3.39e-08 M.
For `O=C1CN2C3CCC2CN(Cc2cccc(c2)Nc2cc(ccn2)-c2cnc(nc2)NCCCN1)C3` [Compound 42], the IC50 is about 2.29e-06 M on eEF2K, 7.08e-07 M against PIK3C3 lipid kinase and 9.77e-08 M at EF2K.
Regarding `COCC1C(=O)NCCCNc2ncc(cn2)-c2ccnc(c2)Nc2cccc(c2)CN2CCN1CC2` (single isomer, unassigned) [Compound 6], the IC50 on eEF2K was 1.12e-06 M; against PIK3C3 lipid kinase, 7.59e-07 M; at EF2K it was 4.47e-08 M.
For the compound `COCC1C(=O)NCCCNc2ncc(cn2)-c2ccnc(c2)Nc2cccc(c2)CN2CCN1CC2` (single isomer, unassigned) [Compound 5], the IC50 is 2.51e-06 M at eEF2K, 4.47e-07 M on PIK3C3 lipid kinase and 1.12e-07 M at EF2K. Also, at PIK3C3 lipid kinase, the remaining activity at 1 µM amounted to 22.4%.
For `NS(=O)(=O)NC1CC2CCNC(=O)C3(CC3)N3CCN(CC3)Cc3cccc(c3)Nc3cc(ccn3)-c3cnc(nc3)N2C1` (centres unmarked) [Compound 87], the IC50 was about 2.29e-06 M on eEF2K and 1.95e-08 M at EF2K. Further, the remaining activity at 1 µM on PIK3C3 lipid kinase is 33.8%.
As for `O=C1NCCCNc2ncc(cn2)-c2ccnc(c2)Nc2cccc(c2)CN2CCN(CC2)C1CO` (single isomer, unassigned) [Compound 3], the figures for the IC50 at eEF2K, against PIK3C3 lipid kinase and on EF2K were 5.75e-06 M, 2.29e-07 M and 1.55e-07 M, respectively. For the same compound, the remaining activity at 1 µM at PIK3C3 lipid kinase was 15.3%.
With `O=C1CN2CCN(CC2)Cc2cccc(c2)Nc2cc(ccn2)-c2ccc(nc2)N2CCCC2CCN1` (single isomer, unassigned) [Compound 142], the IC50 at eEF2K was 1.58e-06 M; at EF2K, 3.55e-08 M. Also, the remaining activity at 1 µM at PIK3C3 lipid kinase was 40%.
Consider `CC1CN2CCN1Cc1cccc(c1)Nc1cc(ccn1)-c1cnc(nc1)N1CC(O)CC1CCNC(=O)C2` (centres unmarked) [Compound 62], for which the IC50 on eEF2K is 8.51e-08 M; against PIK3C3 lipid kinase, 1.23e-06 M; on EF2K, 5.5e-09 M.
Consider `O=C1CN2CCN(Cc3cccc(c3)Nc3cc(ccn3)-c3cnc(nc3)NCCCN1)CC21CC1` [Compound 28], for which the IC50 on eEF2K was over 1e-05 M; against PIK3C3 lipid kinase, over 1e-05 M; on EF2K, 2.24e-05 M.
`O=C1CN2CC3CCC(C2)N3Cc2cccc(c2)Nc2cc(ccn2)-c2cnc(nc2)NCCCN1` [Compound 41]: the IC50 on eEF2K is 1.7e-06 M; at PIK3C3 lipid kinase, 7.41e-07 M; on EF2K, 1.05e-07 M. In addition, on PIK3C3 lipid kinase, the remaining activity at 1 µM amounted to 23.3%.
Turning to `CC1(C)c2cccc(c2)Nc2cc(ccn2)-c2cnc(nc2)NCCCNC(=O)CN2CCN1CC2` [Compound 74], the IC50 on eEF2K is 1.51e-06 M; at EF2K it was 1.2e-07 M. Also, the remaining activity at 1 µM at PIK3C3 lipid kinase is 70.1%.
For `COC(=O)C1CCNC(=O)CN2CCN(CC2)Cc2cccc(c2)Nc2cc(ccn2)-c2cnc(nc2)N1` (single isomer, unassigned) [Compound 118], in that order: 1.55e-05 M, 3.09e-07 M and 70.6%.
For `O=C1CN2CCC(CC2)Cc2cccc(c2)Nc2cc(ccn2)-c2ccc(nc2)NCCCN1` [Compound 140], in that order: 8.51e-06 M, 3.8e-06 M and 46.4%.
As for `NC(=O)C1CCNC(=O)CN2CCN(CC2)Cc2cccc(c2)Nc2cc(ccn2)-c2cnc(nc2)N1` (centres unmarked) [Compound 123], the IC50 was 5.37e-06 M at eEF2K and 4.47e-07 M on EF2K. In addition, the remaining activity at 1 µM at PIK3C3 lipid kinase amounted to 73.4%.
With `CN1CCCNC(=O)CN2CCN(CC2)Cc2cccc(c2)Nc2cc(ccn2)-c2ccc1nc2` [Compound 72], the IC50 is 5.89e-06 M at eEF2K and 2.88e-07 M at EF2K. Moreover, the remaining activity at 1 µM on PIK3C3 lipid kinase stood at 50.8%.
For the compound `CC1c2cccc(c2)Nc2cc(ccn2)-c2cnc(nc2)N2CC(O)CC2CCNC(=O)C2(CC2)N2CCN1CC2` (single isomer, unassigned) [Compound 65], the results for the IC50 at eEF2K, against PIK3C3 lipid kinase and at EF2K were 3.8e-07 M, 1.95e-07 M and 5.62e-09 M, respectively.
In the case of `O=C1CN2CCN(CC2)Cc2cccc(c2)Nc2cc(ccn2)-c2cnc(nc2)NC(C(=O)O)CCN1` (centres unmarked) [Compound 117], at eEF2K, the “eEF2K_C_PThr56 pIC50” value is reported as under 4.52. For the same compound, the results for the IC50 on PIK3C3 lipid kinase and at EF2K were 1.41e-07 M and 4.57e-07 M, respectively. Besides, the VPS34_1microM_%ofcntrl at PIK3C3 lipid kinase is recorded as 16.31%.
In the case of `O=C1CN2CCN(CC2)Cc2cccc(c2)Nc2cc(ccn2)-c2ccc(nc2)N2CCCC2CCN1` (single isomer, unassigned) [Compound 143], the values for the IC50 on eEF2K, against PIK3C3 lipid kinase and at EF2K were over 3.02e-05 M, 2.14e-06 M and 1.38e-05 M, respectively.
On the same counts, the results for `CC1CN2CCN1Cc1cccc(c1)Nc1cc(ccn1)-c1cnc(nc1)NCCCNC(=O)C2` (centres unmarked) [Compound 36] are 9.77e-07 M, 7.24e-07 M and 1.62e-08 M.
On to `NCCCOCC1CN2CCN1Cc1cccc(c1)Nc1cc(ccn1)-c1cnc(nc1)NCCCNC(=O)C2` (centres unmarked) [Compound 148], for which, at eEF2K, the “eEF2K_C_PThr56 pIC50” value was under 5. On PIK3C3 lipid kinase, this compound had an IC50 of 9.33e-08 M and a VPS34_1microM_%ofcntrl of 9.53%.
Consider `NCCCOCC1CN2CCN1Cc1cccc(c1)Nc1cc(ccn1)-c1cnc(nc1)NCCCNC(=O)C2` (centres unmarked) [Compound 114], for which, at eEF2K, the IC50 was over 1e-05 M. On PIK3C3 lipid kinase, the IC50 was 5.13e-07 M and the VPS34_1microM_%ofcntrl is 29.15%.
With `O=C1NCCC2CC(O)CN2c2ncc(cn2)-c2ccnc(c2)Nc2cccc(c2F)OC2CCN(CC2)C12CC2` (centres unmarked) [Compound 96], the IC50 is 8.13e-08 M at eEF2K and 3.98e-09 M on EF2K.
On the same counts, the results for `O=C1CN2CCN(CC2)Cc2cc(ccc2F)Nc2cc(ccn2)-c2cnc(nc2)N2CC(O)CC2CCN1` (centres unmarked) [Compound 50] are 3.55e-07 M and 1.02e-08 M.
